“Also recorded” adds a separate entry of the source.
Assays:
[1] = Tear film pharmacokinetics (LC/MS of tear washes)
[2] = test system: FRT cells; experiment: Alamar Blue cytotoxicity assay in FRT cells; assay type: cell-based, rat; settings: up to 100 μM, 1 or 24 h
[3] = Ocular toxicity after chronic topical dosing (slit-lamp, lissamine green staining); assay type: in vivo; settings: chronically treated mice
Method: (§1) To assess corneal epithelial disruption, 5 μL of lissamine green (LG) dye (1%) was applied to the ocular surface of isofluorane-anesthetized mice. Photographs of the eye were taken using a Nikon Digital camera adapted to an Olympus Zoom Stereo Microscope (Olympus, Center Valley, Pa., USA). Each corneal quadrant was scored on a 3-point scale by one blinded, trained observer, with the extent of staining in each quadrant classified as: 0, no staining; 1, sporadic (involving <25% of the total surface) staining; grade 2, diffuse punctate staining (25-75%); and grade 3, coalesced punctate staining (>75%). The total grade is reported as the sum of scores from all four quadrants, ranging from 0 to 12.
as §1, with “Lissamine green staining. To” for “To”, “(≥75%).” for “(>75%).”

[4] = Compound accumulation in systemic tissues after 14 days topical dosing; assay type: in vivo, mouse
[5] = target: human wildtype CFTR (Homo sapiens, UniProt P13569); experiment: Short-circuit current (Isc) in FRT cells expressing human wild-type CFTR
Chain of human wildtype CFTR (P13569 whole entry): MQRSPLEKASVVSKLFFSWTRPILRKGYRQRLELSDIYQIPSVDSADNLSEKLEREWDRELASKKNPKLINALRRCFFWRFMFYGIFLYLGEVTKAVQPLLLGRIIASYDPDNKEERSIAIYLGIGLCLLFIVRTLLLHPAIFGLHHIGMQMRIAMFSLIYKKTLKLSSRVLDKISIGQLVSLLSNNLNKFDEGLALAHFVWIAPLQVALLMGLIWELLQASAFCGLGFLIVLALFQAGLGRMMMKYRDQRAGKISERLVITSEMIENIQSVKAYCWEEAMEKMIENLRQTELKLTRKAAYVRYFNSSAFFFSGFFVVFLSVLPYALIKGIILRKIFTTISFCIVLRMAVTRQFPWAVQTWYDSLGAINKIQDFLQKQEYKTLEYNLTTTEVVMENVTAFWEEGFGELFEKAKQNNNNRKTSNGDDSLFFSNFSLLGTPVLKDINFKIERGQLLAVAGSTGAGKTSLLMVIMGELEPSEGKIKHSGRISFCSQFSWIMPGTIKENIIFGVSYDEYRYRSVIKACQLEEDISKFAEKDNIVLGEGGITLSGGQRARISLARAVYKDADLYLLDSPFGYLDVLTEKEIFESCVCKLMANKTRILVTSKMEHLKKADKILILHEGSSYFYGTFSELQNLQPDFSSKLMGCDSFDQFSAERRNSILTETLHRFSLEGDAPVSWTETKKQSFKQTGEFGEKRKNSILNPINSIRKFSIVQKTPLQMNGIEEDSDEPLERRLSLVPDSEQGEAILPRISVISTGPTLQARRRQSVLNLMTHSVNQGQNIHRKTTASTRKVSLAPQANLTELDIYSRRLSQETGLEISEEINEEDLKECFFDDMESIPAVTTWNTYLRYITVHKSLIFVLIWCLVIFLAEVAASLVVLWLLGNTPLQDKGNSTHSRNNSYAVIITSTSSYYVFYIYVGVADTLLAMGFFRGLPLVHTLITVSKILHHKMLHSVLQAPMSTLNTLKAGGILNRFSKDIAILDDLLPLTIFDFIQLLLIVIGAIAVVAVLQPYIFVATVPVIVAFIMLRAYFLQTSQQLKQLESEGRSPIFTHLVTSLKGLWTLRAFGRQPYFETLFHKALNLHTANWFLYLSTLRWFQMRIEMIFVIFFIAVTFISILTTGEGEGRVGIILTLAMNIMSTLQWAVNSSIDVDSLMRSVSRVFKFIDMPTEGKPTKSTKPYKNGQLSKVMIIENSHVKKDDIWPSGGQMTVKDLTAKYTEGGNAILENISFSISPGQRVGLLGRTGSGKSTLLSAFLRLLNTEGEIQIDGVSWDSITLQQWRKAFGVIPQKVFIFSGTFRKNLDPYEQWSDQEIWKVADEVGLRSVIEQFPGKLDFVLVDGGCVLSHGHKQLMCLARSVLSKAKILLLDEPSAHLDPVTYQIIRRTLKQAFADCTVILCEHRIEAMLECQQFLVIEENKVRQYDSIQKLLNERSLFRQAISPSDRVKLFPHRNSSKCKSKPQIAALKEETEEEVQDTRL

[6] = test system: LGE BALB/c mice; experiment: Lacrimal gland excision (LGE) mouse model of aqueous-deficient dry eye; assay type: in vivo
Method: as §1
A lacrimal gland excision (LGE) model of aqueous-deficient dry eye was adapted from a reported method (30). The extraorbital lacrimal gland was exposed on each side of wild-type female BALB/c mice (7-8 weeks of age) by 3-mm linear skin incisions. Lacrimal ducts were cauterized and the entire gland was removed bilaterally, avoiding facial vessels and nerves. Incisions were each closed with a single interrupted 6-0 silk suture. Orbital lacrimal tissue remained functional. Eyes with reduced corneal sensation (<5% of mice studied), as identified from neurotrophic corneal ulcers within 1 day of LGE, were excluded. Mice were randomized to receive either treatment (in both eyes) with CFTRact-K089 (0.1 nmol) or vehicle. Mice were treated three times daily (8 AM, 2 PM and 8 PM) for 2 weeks starting on Day 1 after LGE. Tear secretion and LG staining were performed immediately prior to, and one hour after the initial dose on day 4, 10 and 14 after LGE.
Lissamine green staining. […] Each corneal quadrant was scored on a 3-point scale by one blinded, trained observer, with the extent of staining in each quadrant classified as: 0, no staining; 1, sporadic (involving <25% of the total surface) staining; grade 2, diffuse punctate staining (25-75%); and grade 3, coalesced punctate staining (≥75%). […]

[7] = test system: CFTR at the ocular surface; experiment: Ocular surface potential difference (PD) in living mice; assay type: in vivo, mouse; settings: wild-type mice
Method: Open-circuit transepithelial PD were measured continuously in anesthetized mice in response to serial perfusions of different solutions over the ocular surface, as described (21). Mice were anesthetized with Avertin (2,2,2-tribromoethanol, 125 mg/kg intraperitoneal, Sigma-Aldrich, St. Louis, Mo., USA), and core temperature was maintained at 37° C. using a heating pad. Eyes were oriented with the cornea and conjunctiva facing upward and exposed by retracting the eyelid with cross-action forceps. Solutions were isosmolar (320±10 mOsM; compositions provided in ref. 21) and contained 10μ[…] indomethacin to prevent CFTR activation by prostaglandins. The ocular surface was perfused at 6 mL/min through plastic tubing using a multireservoir gravity pinch-valve system (ALA Scientific, Westbury, N.Y., USA) and variable-flow peristaltic pump (medium flow model; Fisher Scientific, Fair Lawn, N.J., USA). A probe catheter was fixed 1 mm above the cornea using a micropositioner and a suction cannula was positioned 3 mm from the orbit. The measuring electrode was in contact to the perfusion catheter and connected to a high-impedance voltmeter (IsoMilivolt Meter; WPI). The reference electrode was grounded via a winged 21-gauge needle filled with isosmolar saline, and inserted subcutaneously in the abdomen. Measuring and reference electrodes consisted of Ag/AgCl with 3 M KCl agar bridges.
An open-circuit potential difference (PD) method developed in our lab was used to evaluate compound activity at the ocular surface in vivo, as depicted in FIG. 3A (21). Cl^− channel function was quantified by measuring PD during continuous perfusion of the ocular surface with a series of solutions that imposed a transepithelial Cl^− gradient and contained various channel agonists and/or inhibitors. The ocular surface was first perfused with isosmolar saline to record the baseline PD. Amiloride was then added to the perfusate, followed by exchange to a low Cl^− solution in which Cl^− with an impermeant anion, gluconate. These maneuvers allow for direct visualization of CFTR activation in response to addition of candidate CFTR activators.
Ocular surface potential difference measurements. Open-circuit transepithelial PD were measured continuously in anesthetized mice in response to serial perfusions of different solutions over the ocular surface, as described (21). Mice were anesthetized with Avertin (2,2,2-tribromoethanol, 125 mg/kg intraperitoneal, Sigma-Aldrich, St. Louis, Mo., USA), and core temperature was maintained at 37° C. using a heating pad. Eyes were oriented with the cornea and conjunctiva facing upward and exposed by retracting the eyelid with cross-action forceps. […]

[8] = test system: tear fluid secretion; assay type: in vivo, mouse

With CCN(CC)c1nc(Nc2ccccc2)nc(OC(C(F)(F)F)C(F)(F)F)n1 [CFTRact-K089] the “amount recovered from tear washes at six hours” value ([1]; 0.1 nmol (2 μL, 50 μM) instilled) was 0.011 ± 0.004 pmol, the “duration of predicted therapeutic tear fluid levels” value ([1]; 0.1 nmol single dose) was “therapeutic levels for at least six hours” and the in vitro cytotoxicity [2] was “no appreciable in vitro cytotoxicity”. The “LG staining of cornea and conjunctiva” value [3] was “no corneal or conjunctival epithelial disruption”, the “ocular toxicity (slit-lamp evaluation)” value ([3]; topical three times daily, two weeks) was “no signs of ocular toxicity” and the “systemic absorption after topical delivery” value ([4]; topical) was “without detectable systemic absorption”. The “amount in mouse blood, brain, liver and kidney (limit of detection)” value ([4]; two weeks of three times per day topical dosing) was < 10 fmol, the “CFTR activation (% Vmax)” value ([5]; 100% = 20 μM forskolin) was ~50 % Vmax and the “extent of CFTR activation (Isc)” value ([5]; forskolin produced little or no further increase in current) was “fully activated CFTR”. The EC50 ([5]; read-out: EC50 for CFTR activation, FRT cells, wild-type CFTR, short-circuit current) was ~250 nM, the “corneal / ocular surface epithelial disruption after LGE” value ([6]; 0.1 nmol three times daily) was “fully prevented the corneal epithelial disruption; also recorded: prevented ocular surface epithelial disruption at all time points” and the “tear volume after LGE” value ([6]; 0.1 nmol topically three times daily) was “restored tear secretion to basal levels; also recorded: maintained basal tear volume”. The LG score change ([6]; 12-point scale, by Day 14, 0.1 nmol three times daily) was −0.6±0.6, the “hyperpolarization in ocular surface potential difference” value [7] was ~8.5 mV and the “change in ocular surface PD” value ([7]; 1-10 μM) was “large hyperpolarizations”. For the same molecule, the “tear fluid secretion in CF mice” value ([8]; CF mice) was “no effect in CF mice” and the “tear fluid secretion after single topical dose” value ([8]; wild-type mice, B074 100 μM, J027 and K089 50 μM, VX-770 10 μM, cholera toxin 0.1 μg/mL, forskolin 20 μM, IBMX 250 μM) was “doubled basal tear secretion for four hours; also recorded: increased tear fluid secretion by approximately two-fold for at least four hours”.
